Measured values: ChEMBL document CHEMBL3217615, “Novel 3,5-bis(arylidiene)-4-piperidone based monocarbonyl analogs of curcumin: anticancer activity evaluation and mode of action study” (2014)

Key:
Assay type in all cases: functional
[1] = system: MCF7; assay: Growth inhibition of human MCF7 cells assessed as cell growth at 10^-8 M after 48 hrs by sulforhodamine B assay; details: MCF7, 48 h; for growth at 0.01 µM: read-out: Activity; for TGI: read-out: pTGI (converted)
[2] = system: HL-60(TB); assay: Growth inhibition of human HL-60(TB) cells assessed as cell growth at 10^-8 M after 48 hrs by sulforhodamine B assay; details: HL-60, 48 h; for growth at 0.01 µM: read-out: Activity; for CC50: read-out: pLC50 (the source's name) (converted); for TGI: read-out: pTGI (converted)
[3] = system: MDA-MB-231; assay: Growth inhibition of human MDA-MB-231 cells after 48 hrs by sulforhodamine B assay; details: MDA-MB-231, 48 h
[4] = system: CAKI-1; assay: Growth inhibition of human CAKI-1 cells assessed as cell growth at 10^-8 M after 48 hrs by sulforhodamine B assay; details: CAKI-1, 48 h; for growth at 0.01 µM: read-out: Activity; for CC50: read-out: pLC50 (the source's name) (converted); for TGI: read-out: pTGI (converted)
[5] = system: HL-60(TB); assay: Growth inhibition of human HL-60(TB) cells assessed as cell growth at 10^-4 M after 48 hrs by sulforhodamine B assay; details: HL-60, 48 h, read-out: Activity
[6] = system: NCI-H23; assay: Growth inhibition of human NCI-H23 cells after 48 hrs by sulforhodamine B assay; details: NCI-H23, 48 h; for CC50: read-out: LC50 (the source's name)
[7] = system: SF-268; assay: Growth inhibition of human SF268 cells assessed as cell growth at 10^-4 M after 48 hrs by sulforhodamine B assay; details: SF-268, 48 h, read-out: Activity
[8] = system: NCI-H522; assay: Growth inhibition of human NCI-H522 cells assessed as cell growth at 10^-4 M after 48 hrs by sulforhodamine B assay; details: NCI-H522, 48 h, read-out: Activity
[9] = system: SN12C; assay: Growth inhibition of human SN12C cells assessed as cell growth at 10^-6 M after 48 hrs by sulforhodamine B assay; details: read-out: Activity
[10] = system: HCT-116; assay: Growth inhibition of human HCT116 cells assessed as cell growth at 10^-8 M after 48 hrs by sulforhodamine B assay; details: HCT-116, 48 h; for growth at 0.01 µM: read-out: Activity; for TGI: read-out: pTGI (converted)
[11] = system: NCI-H226; assay: Growth inhibition of human NCI-H226 cells assessed as cell growth at 10^-6 M after 48 hrs by sulforhodamine B assay; details: NCI-H226, 48 h, read-out: Activity
[12] = system: HL-60(TB); assay: Growth inhibition of human HL-60(TB) cells assessed as cell growth at 10^-7 M after 48 hrs by sulforhodamine B assay; details: HL-60, 48 h, read-out: Activity
[13] = system: SK-MEL-28; assay: Growth inhibition of human SK-MEL-28 cells assessed as cell growth at 10^-6 M after 48 hrs by sulforhodamine B assay; details: SK-MEL-28, 48 h, read-out: Activity
[14] = system: COLO 205; assay: Induction of apoptosis in human COLO205 cells assessed as necrotic apoptosis cells level at 10 uM after 24 hrs by Annexin V/propidium iodide staining-based fluorescence microscopy
[15] = system: RPMI-8226; assay: Growth inhibition of human RPMI8226 cells assessed as cell growth at 10^-7 M after 48 hrs by sulforhodamine B assay; details: RPMI-8226, 48 h, read-out: Activity
[16] = system: COLO 205; assay: Growth inhibition of human COLO205 cells assessed as cell growth at 10^-4 M after 48 hrs by sulforhodamine B assay; details: COLO 205, 48 h, read-out: Activity
[17] = system: RPMI-8226; assay: Growth inhibition of human RPMI8226 cells assessed as cell growth at 10^-8 M after 48 hrs by sulforhodamine B assay; details: RPMI-8226, 48 h; for growth at 0.01 µM: read-out: Activity; for CC50: read-out: pLC50 (the source's name) (converted); for TGI: read-out: pTGI (converted)
[18] = system: K562; assay: Growth inhibition of human K562 cells assessed as cell growth at 10^-6 M after 48 hrs by sulforhodamine B assay; details: K562, 48 h, read-out: Activity
[19] = Growth inhibition of human UACC257 cells after 48 hrs by sulforhodamine B assay; details: UACC-257, 48 h; for CC50: read-out: LC50 (the source's name)
[20] = Growth inhibition of human BT549 cells assessed as cell growth at 10^-8 M after 48 hrs by sulforhodamine B assay; details: BT-549, 48 h; for growth at 0.01 µM: read-out: Activity; for TGI: read-out: pTGI (converted)
[21] = system: T47D; assay: Growth inhibition of human T47D cells assessed as cell growth at 10^-7 M after 48 hrs by sulforhodamine B assay; details: read-out: Activity
[22] = Growth inhibition of human OVCAR5 cells assessed as cell growth at 10^-6 M after 48 hrs by sulforhodamine B assay; details: OVCAR-5, 48 h, read-out: Activity
[23] = system: CAKI-1; assay: Growth inhibition of human CAKI-1 cells after 48 hrs by sulforhodamine B assay; details: CAKI-1, 48 h; for CC50: read-out: LC50 (the source's name)
[24] = Growth inhibition of human OVCAR3 cells assessed as cell growth at 10^-4 M after 48 hrs by sulforhodamine B assay; details: OVCAR-3, 48 h, read-out: Activity
[25] = system: CAKI-1; assay: Growth inhibition of human CAKI-1 cells assessed as cell growth at 10^-6 M after 48 hrs by sulforhodamine B assay; details: CAKI-1, 48 h, read-out: Activity
[26] = system: A498; assay: Growth inhibition of human A498 cells assessed as cell growth at 10^-8 M after 48 hrs by sulforhodamine B assay; details: A498, 48 h; for growth at 0.01 µM: read-out: Activity; for TGI: read-out: pTGI (converted)
[27] = system: DU-145; assay: Growth inhibition of human DU145 cells assessed as cell growth at 10^-6 M after 48 hrs by sulforhodamine B assay; details: DU-145, 48 h, read-out: Activity
[28] = Growth inhibition of human HCT15 cells assessed as cell growth at 10^-4 M after 48 hrs by sulforhodamine B assay; details: HCT-15, 48 h, read-out: Activity
[29] = system: SK-OV-3; assay: Growth inhibition of human SKOV3 cells assessed as cell growth at 10^-8 M after 48 hrs by sulforhodamine B assay; details: SK-OV-3, 48 h; for growth at 0.01 µM: read-out: Activity; for TGI: read-out: pTGI (converted)
[30] = system: SN12C; assay: Growth inhibition of human SN12C cells assessed as cell growth at 10^-7 M after 48 hrs by sulforhodamine B assay; details: read-out: Activity
[31] = system: HCT-116; assay: Growth inhibition of human HCT116 cells assessed as cell growth at 10^-7 M after 48 hrs by sulforhodamine B assay; details: HCT-116, 48 h, read-out: Activity
[32] = system: MDA-MB-468; assay: Growth inhibition of human MDA-MB-468 cells after 48 hrs by sulforhodamine B assay; details: MDA-MB-468, 48 h; for CC50: read-out: LC50 (the source's name)

Structure (SMILES): Cc1ccc(S(=O)(=O)N2C/C(=C\c3cc(F)cc(F)c3)C(=O)/C(=C/c3cc(F)cc(F)c3)C2)cc1
- GI50 [1]: 174 nM
- LC50 [1]: 6920 nM
- growth at 0.01 µM [1]: 89%
- TGI [1]: 1450 nM
- GI50 [2]: 288 nM
- growth at 0.01 µM [2]: 116%
- CC50 [2]: > 100000 nM
- TGI [2]: 1740 nM
- GI50 [3]: 270 nM
- TGI [3]: 784 nM
- CC50 ([3]; read-out: LC50 (the source's name)): 8480 nM
- GI50 [4]: 363 nM
- growth at 0.01 µM [4]: 94%
- CC50 [4]: 61700 nM
- TGI [4]: 2450 nM
- growth at 100 µM [5]: -23%
- GI50 [6]: 1750 nM
- TGI [6]: 4990 nM
- CC50 [6]: 26800 nM
- growth at 100 µM [7]: -88%
- growth at 100 µM [8]: -94%
- growth at 1 µM [9]: 11%
- GI50 [10]: 209 nM
- LC50 [10]: 1950 nM
- growth at 0.01 µM [10]: 107%
- TGI [10]: 537 nM
- growth at 1 µM [11]: 90%
- growth at 0.1 µM [12]: 89%
- growth at 1 µM [13]: 29%
- Activity [14]: 3%
- growth at 0.1 µM [15]: 17%
- growth at 100 µM [16]: -95%
- GI50 [17]: 37.1 nM
- growth at 0.01 µM [17]: 94%
- CC50 [17]: 93300 nM
- TGI [17]: 331 nM
- growth at 1 µM [18]: 3%
- GI50 [19]: 939 nM
- TGI [19]: 2900 nM
- CC50 [19]: 8600 nM
- GI50 [20]: 339 nM
- LC50 [20]: 3550 nM
- growth at 0.01 µM [20]: 102%
- TGI [20]: 933 nM
- growth at 0.1 µM [21]: 101%
- growth at 1 µM [22]: 51%
- GI50 [23]: 365 nM
- TGI [23]: 2430 nM
- CC50 [23]: 61900 nM
- growth at 100 µM [24]: -98%
- growth at 1 µM [25]: 16%
- GI50 [26]: 1860 nM
- LC50 [26]: 8710 nM
- growth at 0.01 µM [26]: 96%
- TGI [26]: 4070 nM
- growth at 1 µM [27]: 62%
- growth at 100 µM [28]: -65%
- GI50 [29]: 1820 nM
- LC50 [29]: 37200 nM
- growth at 0.01 µM [29]: 103%
- TGI [29]: 5620 nM
- growth at 0.1 µM [30]: 94%
- growth at 0.1 µM [31]: 89%
- GI50 [32]: 349 nM
- TGI [32]: 1710 nM
- CC50 [32]: 5770 nM

Structure (SMILES): O=C1/C(=C/c2ccc(Cl)cc2Cl)CN(S(=O)(=O)c2ccccc2)C/C1=C\c1ccc(Cl)cc1Cl
- GI50 [1]: 302 nM
- LC50 [1]: > 100000 nM
- growth at 0.01 µM [1]: 96%
- TGI [1]: 100000 nM
- GI50 [2]: 562 nM
- growth at 0.01 µM [2]: 97%
- CC50 [2]: > 100000 nM
- TGI [2]: 3980 nM
- GI50 [3]: 466 nM
- TGI [3]: 2160 nM
- GI50 [4]: 1820 nM
- growth at 0.01 µM [4]: 89%
- CC50 [4]: > 100000 nM
- TGI [4]: 5750 nM
- growth at 100 µM [5]: -13%
- GI50 [6]: 423 nM
- TGI [6]: 2710 nM
- CC50 [6]: > 100000 nM
- growth at 100 µM [7]: 4%
- growth at 100 µM [8]: -56%
- growth at 1 µM [9]: -15%
- GI50 [10]: 200 nM
- LC50 [10]: 912 nM
- growth at 0.01 µM [10]: 99%
- TGI [10]: 427 nM
- growth at 1 µM [11]: 52%
- growth at 0.1 µM [12]: 92%
- growth at 1 µM [13]: 93%
- Activity [14]: 1%
- growth at 0.1 µM [15]: 91%
- growth at 100 µM [16]: -25%
- GI50 [17]: 224 nM
- growth at 0.01 µM [17]: 104%
- CC50 [17]: > 100000 nM
- TGI [17]: 603 nM
- growth at 1 µM [18]: 8%
- GI50 [19]: 4080 nM
- TGI [19]: > 100000 nM
- CC50 [19]: > 100000 nM
- GI50 [20]: 977 nM
- LC50 [20]: > 100000 nM
- growth at 0.01 µM [20]: 106%
- TGI [20]: 4170 nM
- growth at 0.1 µM [21]: 96%
- growth at 1 µM [22]: 80%
- GI50 [23]: 1840 nM
- TGI [23]: 5750 nM
- CC50 [23]: > 100000 nM
- growth at 100 µM [24]: -65%
- growth at 1 µM [25]: 77%
- GI50 [26]: 724 nM
- LC50 [26]: > 100000 nM
- growth at 0.01 µM [26]: 67%
- TGI [26]: 4370 nM
- growth at 1 µM [27]: 18%
- growth at 100 µM [28]: -36%
- GI50 [29]: 7940 nM
- LC50 [29]: > 100000 nM
- growth at 0.01 µM [29]: 109%
- TGI [29]: > 100000 nM
- growth at 0.1 µM [30]: 92%
- growth at 0.1 µM [31]: 95%
- GI50 [32]: 1130 nM
- TGI [32]: 3890 nM
- CC50 [32]: > 100000 nM
